Experimental data from PubChem BioAssay AID1259411 (Chemical Carcinogenesis Research Information System (CCRIS), 2018).
Calls of active or inactive are those of the source. How the calls were made is not given here.

Tested on: rodent carcinogenicity bioassays, tumor incidence
Assay: CCRIS carcinogenicity studies
Outline: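 NCI-built, expert-reviewed records of carcinogenicity and related test outcomes (mutagenicity, tumor promotion/inhibition) compiled from published and report sources, historical span 1985-2011, not updated.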

`O[C@H]1C=Cc2c(cc3ccc4cccc5ccc2c3c45)[C@@H]1O` was tested, and the carcinogen call (Species: FISH, Strain/Sex: RAINBOW TROUT/MALE,FEMALE, Route: INJECTION, Dose: 0, 0.01, 1 UG INJECTED INTO NEWLY HATCHED SAC-FRY ONCE (STUDY DURATION: 9 MO), Dose: 0, 0.01, 1 UG INJECTED INTO NEWLY HATCHED SAC-FRY ONCE (STUDY DURATION: 9 MO), Tumor Site: Type of Lesion: LIVER: TUMOR) was “active; positive”, the carcinogen call (Species: FISH, Strain/Sex: RAINBOW TROUT/MALE,FEMALE, Route: INJECTION, Dose: 0, 0.5, 2, 5 UG INJECTED INTO NEWLY HATCHED SAC-FRY (STUDY DURATION: 9 MO), Dose: 0, 0.5, 2, 5 UG INJECTED INTO NEWLY HATCHED SAC-FRY (STUDY DURATION: 9 MO), Tumor Site: Type of Lesion: LIVER: TUMOR) was “active; positive” and the carcinogen call (Species: MOUSE, Strain/Sex: C57BL/FEMALE, Route: DERMAL, Dose: 0.15, 0.30 UMOL IN ACETONE/NH4OH (1000:1) EVERY 2 WK FOR 60 WK, Tumor Site: Type of Lesion: INTEGUMENTARY SYSTEM (SKIN): SQUAMOUS CELL CARCINOMA) was “active; positive”. For the same molecule, the carcinogen call (Species: MOUSE, Strain/Sex: SWISS/MALE,FEMALE, Route: INTRAPERITONEAL, Dose: 200 NMOL ON FIRST D OF LIFE, 400 NMOL ON D 8, 800 NMOL ON D 15, Tumor Site: Type of Lesion: LUNG: ADENOMA, HEMATOPOIETIC SYSTEM (LEUKEMIA), LYMPHATIC SYSTEM: MALIGNANT LYMPHOMA, Tumor Site: Type of Lesion: LUNG: ADENOMA, HEMATOPOIETIC SYSTEM (LEUKEMIA), LYMPHATIC SYSTEM: MALIGNANT LYMPHOMA) was “active; positive”.
With `Cc1ccccc1N=O` the carcinogen call (Species: RAT, Strain/Sex: F344/MALE, Route: ORAL, Dose: 3.38 G/KG- DIET FOR 72 WK (TOTAL DOSE 0.21 MOL/RAT), Tumor Site: Type of Lesion: LIVER: HEPATOMA, URINARY BLADDER: PAPILLOMA, PERITONEAL CAVITY: MESOTHELIOMA, SARCOMA, SPLEEN: FIBROMA, INTEGUMENTARY SY, Tumor Site: Type of Lesion: LIVER: HEPATOMA, URINARY BLADDER: PAPILLOMA, PERITONEAL CAVITY: MESOTHELIOMA, SARCOMA, SPLEEN: FIBROMA, INTEGUMENTARY SY) was “active; positive”.
In the case of `NC(N)=S`, the carcinogen call (Species: RAT, Route: ORAL, Tumor Site: Type of Lesion: LIVER, THYROID GLAND, EAR (ZYMBAL GLAND), Tumor Site: Type of Lesion: LIVER, THYROID GLAND, EAR (ZYMBAL GLAND)) is reported as “active; positive”.
`Nc1nc(/C=C/c2ccc([N+](=O)[O-])o2)no1` was tested, and the carcinogen call (Species: MOUSE, Strain/Sex: CD-1/FEMALE, Route: GAVAGE, Dose: 0, 41, 82, 173 MG/KG/D SUSPENDED IN 25% GLYCEROL 4 D/WK FOR 371 D (TOTAL DOSE 0; 15.4; 30.9; 64.2 G) (STUDY DURATION: LI, Dose: 0, 41, 82, 173 MG/KG/D SUSPENDED IN 25% GLYCEROL 4 D/WK FOR 371 D (TOTAL DOSE 0; 15.4; 30.9; 64.2 G) (STUDY DURATION: LI, Tumor Site: Type of Lesion: THYMUS: LYMPHOMA, BLADDER: TRANSITIONAL CELL CARCINOMA, STOMACH: SQUAMOUS CELL CARCINOMA, SQUAMOUS PAPILLOMA, LUNG: ADEN, Tumor Site: Type of Lesion: THYMUS: LYMPHOMA, BLADDER: TRANSITIONAL CELL CARCINOMA, STOMACH: SQUAMOUS CELL CARCINOMA, SQUAMOUS PAPILLOMA, LUNG: ADEN) was “active; positive”, the carcinogen call (Species: MOUSE, Strain/Sex: CD-1/FEMALE, Route: ORAL, Dose: 0, 0.17% IN DIET FOR 58 WK (STUDY DURATION: 91 WK), Tumor Site: Type of Lesion: HEMATOPOIETIC SYSTEM: LYMPHOMA, THYMUS: LYMPHOMA, STOMACH: SQUAMOUS CELL CARCINOMA, SPINDLE CELL TUMOR, Tumor Site: Type of Lesion: HEMATOPOIETIC SYSTEM: LYMPHOMA, THYMUS: LYMPHOMA, STOMACH: SQUAMOUS CELL CARCINOMA, SPINDLE CELL TUMOR) was “active; positive” and the carcinogen call (Species: MOUSE, Strain/Sex: CD-1/FEMALE, Route: ORAL, Dose: 0, 0.25% IN DIET FOR 31 WK (STUDY DURATION: LIFE), Tumor Site: Type of Lesion: THYMUS: LYMPHOMA, STOMACH: SQUAMOUS CELL CARCINOMA, LUNG: ADENOMA, MAMMARY GLAND: ADENOCARCINOMA, Tumor Site: Type of Lesion: THYMUS: LYMPHOMA, STOMACH: SQUAMOUS CELL CARCINOMA, LUNG: ADENOMA, MAMMARY GLAND: ADENOCARCINOMA) was “active; positive”. For the same molecule, the carcinogen call (Species: MOUSE, Strain/Sex: CD-1/MALE, Route: GAVAGE, Dose: 0, 45, 87, 185 MG/KG/D SUSPENDED IN 25% GLYCEROL 4 D/WK FOR 371 D (TOTAL DOSE 0; 16.8; 32.3; 68.8 G) (STUDY DURATION: LI, Dose: 0, 45, 87, 185 MG/KG/D SUSPENDED IN 25% GLYCEROL 4 D/WK FOR 371 D (TOTAL DOSE 0; 16.8; 32.3; 68.8 G) (STUDY DURATION: LI, Tumor Site: Type of Lesion: THYMUS: LYMPHOMA, BLADDER: TRANSITIONAL CELL CARCINOMA, STOMACH: SQUAMOUS CELL CARCINOMA, SQUAMOUS PAPILLOMA, LUNG: ADEN, Tumor Site: Type of Lesion: THYMUS: LYMPHOMA, BLADDER: TRANSITIONAL CELL CARCINOMA, STOMACH: SQUAMOUS CELL CARCINOMA, SQUAMOUS PAPILLOMA, LUNG: ADEN) was “active; positive”, the carcinogen call (Species: MOUSE, Strain/Sex: CD-1/MALE, Route: ORAL, Dose: 0, 0.18% IN DIET FOR 58 WK (STUDY DURATION: 92 WK), Tumor Site: Type of Lesion: THYMUS: LYMPHOMA, BLADDER: TRANSITIONAL CELL CARCINOMA, STOMACH: SQUAMOUS CELL CARCINOMA, SPINDLE CELL TUMOR, Tumor Site: Type of Lesion: THYMUS: LYMPHOMA, BLADDER: TRANSITIONAL CELL CARCINOMA, STOMACH: SQUAMOUS CELL CARCINOMA, SPINDLE CELL TUMOR) was “active; positive” and the carcinogen call (Species: MOUSE, Strain/Sex: CD-1/MALE, Route: ORAL, Dose: 0, 0.25% IN DIET FOR 38 WK (STUDY DURATION: LIFE), Tumor Site: Type of Lesion: THYMUS: LYMPHOMA, BLADDER: TRANSITIONAL CELL CARCINOMA, SPINDLE CELL TUMOR, STOMACH: SQUAMOUS CELL CARCINOMA, SQUAMOUS P, Tumor Site: Type of Lesion: THYMUS: LYMPHOMA, BLADDER: TRANSITIONAL CELL CARCINOMA, SPINDLE CELL TUMOR, STOMACH: SQUAMOUS CELL CARCINOMA, SQUAMOUS P) was “active; positive”.
In the case of `O=c1[nH]cc(N(CCCl)CCCl)c(=O)[nH]1`, the carcinogen call (Species: MOUSE, Strain/Sex: STRAIN-A/MALE,FEMALE, Route: INTRAPERITONEAL, Dose: 0.18-12 MG/KG IN 12 DOSES OVER 4 WK, Tumor Site: Type of Lesion: LUNG: ADENOMA) is reported as “active; positive”, the carcinogen call (Species: MOUSE, Strain/Sex: STRAIN-A/MALE,FEMALE, Route: INTRAPERITONEAL, Dose: 8, 20, 40 MG/KG FOR 7 DOSES OVER 24 WK, Dose: 8, 20, 40 MG/KG FOR 7 DOSES OVER 24 WK, Tumor Site: Type of Lesion: LUNG: ADENOMA) is reported as “active; positive” and the carcinogen call (Species: RAT, Strain/Sex: STRAIN-CD/FEMALE, Route: INTRAPERITONEAL, Dose: 0.15, 0.3 MG/KG 3/WK FOR 6 MO, Tumor Site: Type of Lesion: LYMPHATIC SYSTEM: LYMPHOMA, PERITONEAL CAVITY: SARCOMA, MAMMARY GLAND: CARCINOMA, OVARIES: CARCINOMA, Tumor Site: Type of Lesion: LYMPHATIC SYSTEM: LYMPHOMA, PERITONEAL CAVITY: SARCOMA, MAMMARY GLAND: CARCINOMA, OVARIES: CARCINOMA) is reported as “active; positive”. The carcinogen call (Species: RAT, Strain/Sex: STRAIN-CD/MALE, Route: INTRAPERITONEAL, Dose: 0.15, 0.3 MG/KG 3/WK FOR 6 MO, Tumor Site: Type of Lesion: LYMPHATIC SYSTEM: LYMPHOMA, PANCREAS, PERITONEAL CAVITY: SARCOMA, Tumor Site: Type of Lesion: LYMPHATIC SYSTEM: LYMPHOMA, PANCREAS, PERITONEAL CAVITY: SARCOMA) was “active; positive”.
With `CCCSP(=O)(OCC)SCCC` the carcinogen call (Species: Mouse, Strain/Sex: B6C3F1/Female (50/Group), Route: Oral, Dose: 0, 0.2, 2, 30 ppm of 94.6% ethoprop in diet for 104 wk, study duration 104 wk, Dose: 0, 0.2, 2, 30 ppm of 94.6% ethoprop in diet for 104 wk, study duration 104 wk) was “inactive; negative”, the carcinogen call (Species: Mouse, Strain/Sex: B6C3F1/Male (50/Group), Route: Oral, Dose: 0, 0.2, 2, 30 ppm of 94.6% ethoprop in diet for 104 wk, study duration 104 wk, Dose: 0, 0.2, 2, 30 ppm of 94.6% ethoprop in diet for 104 wk, study duration 104 wk) was “inactive; negative” and the carcinogen call (Species: Rat, Strain/Sex: Crl:CD(SD)BR VAF/Plus/Female (80-90/Group), Route: Oral, Dose: 0, 60, 400 (reduced from 600 during wk 3) ppm of 95.6% ethoprop in diet for 104 wk, study duration 104 wk, Dose: 0, 60, 400 (reduced from 600 during wk 3) ppm of 95.6% ethoprop in diet for 104 wk, study duration 104 wk) was “inactive; negative”. For the same molecule, the carcinogen call (Species: Rat, Strain/Sex: Crl:CD(SD)BR VAF/Plus/Male (80-90/Group), Route: Oral, Dose: 0, 60, 400 (reduced from 600 during wk 3) ppm of 95.6% ethoprop in diet for 104 wk, study duration 104 wk, Dose: 0, 60, 400 (reduced from 600 during wk 3) ppm of 95.6% ethoprop in diet for 104 wk, study duration 104 wk) was “inactive; negative”.
